# Source: PubChem BioAssay (NCI)
# Where “and” joins values, the source holds several entries; their conditions need not be identical. Identical values can stand only once.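 Assay format: 96-well plates, 48-hour exposure. Definition used: TGI = concentration required for complete inhibition of growth.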 Where a SMILES comes first, the peptide text is derived from it. The star is where a group is joined. Cbz = O=C(OCc1ccccc1)*; Boc = CC(C)(C)OC(=O)*; OSu = O=C1CCC(=O)N1O*; Bn = c1ccc(C*)cc1
# How the values were obtained:
# Test in all cases: growth of human tumour cells (NCI), 48 h
# TK-10 renal = test system: TK-10 renal
# HT29 colon = test system: HT29 colon
# KM12 colon = test system: KM12 colon
# A549 NSCLC = test system: A549 NSCLC
compound,measurement,setting,value
CC(=O)Nc1cc2c3c(c1)CCCN3CCC2,TGI,TK-10 renal,> 100 µM
same,TGI,HT29 colon,> 100 µM
same,TGI,KM12 colon,> 100 µM
same,TGI,A549 NSCLC,> 100 µM
CCN(CC)CCNC(=O)c1cc2cc(NC(=O)c3cc4cc(NC(=O)c5cc6cc(N)ccc6[nH]5)ccc4[nH]3)ccc2[nH]1,TGI,TK-10 renal,> 100 µM
same,TGI,HT29 colon,> 100 µM
same,TGI,KM12 colon,> 100 µM
same,TGI,A549 NSCLC,> 100 µM
CC(C)=NNC=N/C(C#N)=C(\N)C#N,TGI,TK-10 renal,> 100 µM
same,TGI,HT29 colon,> 100 µM
same,TGI,A549 NSCLC,> 100 µM
C=C(C)[C@@]1(OC(=O)c2cc([N+](=O)[O-])cc([N+](=O)[O-])c2)C[C@@H]2CCCC[C@@H]21,TGI,TK-10 renal,> 100 µM
same,TGI,HT29 colon,> 100 µM
same,TGI,KM12 colon,> 100 µM
same,TGI,A549 NSCLC,> 100 µM
CC(C)NC(=O)OCc1c(COC(=O)NC(C)C)c(-c2cc[n+](COC(=O)C(C)(C)C)cc2)n2c1CCC2,TGI,TK-10 renal,> 100 µM
same,TGI,HT29 colon,> 100 µM
same,TGI,KM12 colon,> 100 µM
same,TGI,A549 NSCLC,> 100 µM
Nc1cc(N2CCCC2)nc(=O)n1-c1ccccc1,TGI,TK-10 renal,> 100 µM
same,TGI,HT29 colon,> 100 µM
same,TGI,KM12 colon,> 100 µM
same,TGI,A549 NSCLC,> 100 µM
COc1cccc2c1OC(c1ccc(C#N)cc1)C([N+](=O)[O-])=C2 (stereo not drawn),TGI,TK-10 renal,7.77 µM
same,TGI,HT29 colon,3.14 µM
same,TGI,A549 NSCLC,7.03 µM
C[n+]1c(-c2ccc(/C=N/NC(=O)C(=O)N/N=C/c3ccc(-c4cn5ccsc5[n+]4C)cc3)cc2)cn2ccsc21,TGI,TK-10 renal,> 100 µM
same,TGI,HT29 colon,> 100 µM
same,TGI,KM12 colon,> 100 µM
same,TGI,A549 NSCLC,> 100 µM
CC(NC(=O)c1ccccc1)NC(=O)C(C)C(=O)Nc1ccccc1 (stereo not drawn),TGI,TK-10 renal,> 100 µM
same,TGI,HT29 colon,> 100 µM
same,TGI,KM12 colon,> 100 µM
same,TGI,A549 NSCLC,> 100 µM
Cc1nnc2sc(NN)nn12,TGI,TK-10 renal,> 100 µM
same,TGI,HT29 colon,> 100 µM
same,TGI,KM12 colon,> 100 µM
same,TGI,A549 NSCLC,> 100 µM
COc1ccc2cc(C(=O)O)ccc2c1OC,TGI,HT29 colon,> 100 µM
same,TGI,KM12 colon,> 100 µM
same,TGI,A549 NSCLC,> 100 µM
c1ccc([P+](Cc2ccccc2C[P+](c2ccccc2)(c2ccccc2)c2ccccc2)(c2ccccc2)c2ccccc2)cc1,TGI,TK-10 renal,> 100 µM
same,TGI,HT29 colon,> 100 µM
same,TGI,KM12 colon,> 100 µM
same,TGI,A549 NSCLC,> 100 µM
C=CCSC1=N/C(=C\c2cccs2)C(=O)N1CC=C,TGI,TK-10 renal,> 100 µM
same,TGI,HT29 colon,> 100 µM
same,TGI,KM12 colon,> 100 µM
same,TGI,A549 NSCLC,> 100 µM
CCCCCCOc1ccc(C(=O)NO)cc1,TGI,TK-10 renal,> 100 µM
same,TGI,HT29 colon,22.7 µM
same,TGI,KM12 colon,27.6 µM
same,TGI,A549 NSCLC,43.3 µM
COCCCNC(=O)C1=C(C)NC(C)=C(C(=O)NCCCOC)C1,TGI,TK-10 renal,> 100 µM
same,TGI,HT29 colon,> 100 µM
same,TGI,KM12 colon,> 100 µM
same,TGI,A549 NSCLC,> 100 µM
CN(C)CCN=C1Nc2ccccc2C(=S)N2CSCC12 (stereo not drawn),TGI,TK-10 renal,> 100 µM
same,TGI,HT29 colon,> 100 µM
same,TGI,KM12 colon,> 100 µM
same,TGI,A549 NSCLC,> 100 µM
CC(C)(C)OC(=O)NC(Cc1ccc(OCc2ccccc2)cc1)C(=O)NC(CCCCNC(=O)OCc1ccccc1)C(=O)ON1C(=O)CCC1=O (stereo not drawn) (Boc-Tyr(Bn)-Lys(Cbz)-OSu; configuration not given here),TGI,TK-10 renal,> 100 µM
same,TGI,HT29 colon,80.2 µM
same,TGI,KM12 colon,65.5 µM
same,TGI,A549 NSCLC,> 100 µM
NC(=S)N/N=C1\NC(=O)/C(=C/c2ccc3c(c2)OCO3)S1,TGI,TK-10 renal,> 100 µM
same,TGI,HT29 colon,82.9 µM
same,TGI,KM12 colon,55.3 µM
same,TGI,A549 NSCLC,> 100 µM
CC1=C/C(=N\O)C(C(O)(C(F)(F)F)C(F)(F)F)C(C)(C)C1 (stereo not drawn),TGI,TK-10 renal,> 10 µM
same,TGI,HT29 colon,> 10 µM
same,TGI,KM12 colon,> 10 µM
same,TGI,A549 NSCLC,> 10 µM
Cc1ccc(Nc2c(C#N)[n+]([O-])c3cc(Cl)ccc3[n+]2[O-])cc1,TGI,TK-10 renal,> 100 µM
same,TGI,HT29 colon,> 61.1 µM
same,TGI,KM12 colon,> 100 µM
same,TGI,A549 NSCLC,> 100 µM
O=C(O)c1cc(/C=C/c2cc(O)ccc2O)ccc1O,TGI,TK-10 renal,> 10 µM
same,TGI,HT29 colon,> 10 µM
same,TGI,A549 NSCLC,> 10 µM
COC(=O)C1OC(O[C@H]2CC[C@]3(C)[C@H]4CC=C5[C@@H]6CC(C)(C)CC[C@]6(C(=O)OC6OCC(O)C(O)C6OC6OC(C)C(OC7OCC(O)C(OC8OCC(O)C(O)C8O)C7O)C(OC7OCC(O)C(O)C7O)C6O)CC[C@@]5(C)[C@]4(C)CC[C@H]3C2(C)C)C(O)C(OC2OCC(O)C(O)C2O)C1O (stereo partly drawn),TGI,TK-10 renal,70.4 µM and 24.4 µM
same,TGI,HT29 colon,10.1 µM and 10.9 µM
same,TGI,KM12 colon,10.7 µM and 10.8 µM
same,TGI,A549 NSCLC,11.3 µM and 11.7 µM
CC(SC(=S)N1CCOCC1)C(=O)Nc1nnc(-c2ccccc2)o1 (stereo not drawn),TGI,TK-10 renal,> 100 µM
same,TGI,HT29 colon,> 100 µM
same,TGI,KM12 colon,> 100 µM
same,TGI,A549 NSCLC,> 100 µM
CCCCC(Sc1cc(Cl)c(C)cc1S(=O)(=O)Nc1n[nH]c(N)n1)C(=O)OC (stereo not drawn),TGI,TK-10 renal,> 10 µM
same,TGI,HT29 colon,> 10 µM
same,TGI,KM12 colon,> 10 µM
same,TGI,A549 NSCLC,> 10 µM
CN(NC(=O)c1cccs1)C1=NCCCCN1,TGI,TK-10 renal,> 100 µM
same,TGI,HT29 colon,> 100 µM
same,TGI,KM12 colon,> 100 µM
same,TGI,A549 NSCLC,> 100 µM
COc1cc2cccc(N)c2cc1OC,TGI,TK-10 renal,> 72 µM
same,TGI,HT29 colon,> 100 µM
same,TGI,KM12 colon,> 100 µM
same,TGI,A549 NSCLC,> 100 µM
CC(=O)Nc1ccc2[nH]c(-c3cccc(Cl)c3)cc(=O)c2c1,TGI,TK-10 renal,> 100 µM
same,TGI,HT29 colon,33.7 µM
same,TGI,KM12 colon,> 100 µM
same,TGI,A549 NSCLC,> 100 µM
CCOC(=O)[C@@]12C3C=CC(CC3)[C@]1(C(=O)c1ccccc1)C(=O)C(=O)N2c1ccccc1 (stereo partly drawn),TGI,TK-10 renal,> 100 µM
same,TGI,HT29 colon,> 100 µM
same,TGI,KM12 colon,> 100 µM
same,TGI,A549 NSCLC,> 100 µM
O=C(O)CCc1ccc2c(c1)C(=O)CC2,TGI,TK-10 renal,> 100 µM
same,TGI,HT29 colon,> 100 µM
same,TGI,KM12 colon,> 100 µM
same,TGI,A549 NSCLC,> 100 µM
CC1Oc2c(c(=O)oc3ccccc23)[C@@]1(C)CC1C[C@H](C)C(=O)O1 (stereo partly drawn),TGI,TK-10 renal,> 100 µM
same,TGI,HT29 colon,71.5 µM
same,TGI,KM12 colon,> 100 µM
same,TGI,A549 NSCLC,> 100 µM
O=C(Nc1ccccc1)N(C1=NCC(CI)S1)c1ccc(F)cc1F (stereo not drawn),TGI,TK-10 renal,> 100 µM
same,TGI,HT29 colon,> 100 µM
same,TGI,KM12 colon,> 100 µM
same,TGI,A549 NSCLC,> 100 µM
CCCCCCCCCCCCCCCCOCC(Cl)COP(=O)(O)OP(=O)(O)OCC1OC(n2cc(C)c(=O)[nH]c2=O)CC1O (stereo not drawn),TGI,TK-10 renal,> 100 µM
same,TGI,HT29 colon,> 100 µM
same,TGI,KM12 colon,> 100 µM
same,TGI,A549 NSCLC,> 100 µM
COc1ccc(C(CC(=O)C(C)(C)CN2CCCCC2)SCCS(=O)(=O)O)cc1 (stereo not drawn),TGI,TK-10 renal,> 100 µM
same,TGI,HT29 colon,83.2 µM
same,TGI,KM12 colon,> 100 µM
same,TGI,A549 NSCLC,> 100 µM
Oc1ccc(N=C2CCC(=C(c3ccccc3)c3ccc(Nc4ccc(O)cc4)cc3)CC2)cc1,TGI,TK-10 renal,> 100 µM
same,TGI,HT29 colon,> 100 µM
same,TGI,KM12 colon,> 100 µM
same,TGI,A549 NSCLC,> 100 µM
NCCN1C(=O)CN=C(c2ccc(Cl)cc2)c2cc(Cl)ccc21,TGI,TK-10 renal,30.5 µM
same,TGI,HT29 colon,36 µM
same,TGI,KM12 colon,31.3 µM
same,TGI,A549 NSCLC,32.2 µM
N#C/C(C(=O)Nc1ccc(Cl)cc1)=C(/N)N1CCCCC1,TGI,KM12 colon,> 100 µM
same,TGI,A549 NSCLC,> 100 µM
